Experimental data as given in patent publication US9155729B2, “Thiazolidinedione analogues” (Metabolic Solutions Development Company, LLC, priority 2006, dated 2015).
Marks after values point to notes of the source that are not given here.

Tests used:
[1] = target: T1, PPARγ (Homo sapiens, UniProt P37231); experiment: Commercial PPARγ binding assay (Invitrogen, PPAR-LBD/Fluormone PPAR Green complex); conditions: for PPARγ binding signal (fluorescence polarization, Fluormone PPAR Green displacement): mean of three experiments; for Binding to PPARγ (in words): referring to FIG. 1 and Table B
T1 construct: purchased Invitrogen Corporation, Carlsbad, Calif
T1 sequence (P37231 238-503 limits assumed): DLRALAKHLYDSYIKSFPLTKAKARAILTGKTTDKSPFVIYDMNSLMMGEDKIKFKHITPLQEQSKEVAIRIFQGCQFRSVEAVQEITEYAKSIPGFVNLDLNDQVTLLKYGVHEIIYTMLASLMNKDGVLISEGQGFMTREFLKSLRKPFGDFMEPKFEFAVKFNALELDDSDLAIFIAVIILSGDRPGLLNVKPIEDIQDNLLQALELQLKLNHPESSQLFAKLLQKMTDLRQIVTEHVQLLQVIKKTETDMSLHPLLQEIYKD
Experimental: The ability of several exemplary compounds of the present invention, shown in Table A, to bind to PPARγ was measured using a commercial binding assay (Invitrogen Corporation, Carlsbad, Calif.) that measures the test compounds ability to bind with PPAR-LBD/Fluormone PPAR Green complex. These assays were performed on three occasions with each assay using four separate wells (quadruplicate) at each concentration of tested compound. The data are mean and SEM of the values obtained from the three experiments. […] Compounds were added at the concentrations shown, which range from 0.1-100 micromolar.

[2] = tested on: Diabetic KKAy mice; experiment: Glucose, insulin and triglyceride in diabetic KKAy mice, 4 days oral dosing; format: in vivo; conditions: for Glucose / Insulin / Triglycerides: 93 mg/kg orally for 4 days, fasted, blood approx. 18 hours after last dose, mean and SEM; for Effectiveness at lowering glucose, insulin and triglyceride levels / antidiabetic activity (in words): Table C
Experimental: The insulin sensitizing and antidiabetic pharmacology are measured in the KKA^Y mice as previously reported [Hofmann, C., Lomez, K., and Colca, J. R. (1991). Glucose transport deficiency corrected by treatment with the oral anti-hyperglycemic agent Pioglitazone. Endocrinology, 129:1915-1925.]. Compounds are formulated in 1% sodium carboxy methylcellulose, and 0.01% tween 20 and dosed daily by oral gavage.
Compounds were formulated by suspension and orally dosed to KKAy mice at 93 mg/kg for 4 days. The compounds were first dissolved in DMSO and then placed into aqueous suspension containing 7-10% DMSO, 1% sodium methylcarboxycellulose, and 0.01% Tween 20. On the fifth day, the mice were fasted and blood samples were obtained approximately 18 hours after the last dose. The parameters were measured by standard assay methods. Data are mean and SEM N=6-12 mice.

| SMILES | PPARγ binding signal (fluorescence polarization, Fluormone PPAR Green displacement) ([1]; 1 μM compound) | PPARγ binding signal (fluorescence polarization, Fluormone PPAR Green displacement) ([1]; 3 μM compound) | PPARγ binding signal (fluorescence polarization, Fluormone PPAR Green displacement) ([1]; 10 μM compound) | PPARγ binding signal (fluorescence polarization, Fluormone PPAR Green displacement) ([1]; 50 μM compound) | PPARγ binding signal (fluorescence polarization, Fluormone PPAR Green displacement) ([1]; 100 μM compound) | PPARγ binding signal (fluorescence polarization, Fluormone PPAR Green displacement) ([1]; .1 μM compound) | PPARγ binding signal (fluorescence polarization, Fluormone PPAR Green displacement) ([1]; .3 μM compound) | Glucose ([2]; N=6-12, 93 mg/kg) | Insulin ([2]; N=6-12, 93 mg/kg) | Triglycerides ([2]; N=6-12, 93 mg/kg) | Effectiveness at lowering glucose, insulin and triglyceride levels / antidiabetic activity (in words) [2] | Binding to PPARγ (in words) [1] | Glucose ([2]; N=6-12) | Insulin ([2]; N=6-12) | Triglycerides ([2]; N=6-12) |
| --- | --- | --- | --- | --- | --- | --- | --- | --- | --- | --- | --- | --- | --- | --- | --- |
| CCc1ccc(CCOc2ccc(CC3(C)SC(=O)NC3=O)cc2)nc1 (single isomer, unassigned) [Compound 4] | 234 | 224 | 200 | 122 | 91 | 236 | 230 | – | – | – | – | – | – | – | – |
| CCc1ccc(CCOc2ccc(CC3(C)SC(=O)NC3=O)cc2)nc1 (single isomer, unassigned) [Compound 6] | 233 | 223 | 198 | 126 | 99 | 246 | 246 | 694 ± 63 mg/dL | 11.1 ± 1.6 ng/mL | 298 ± 49 mg/dL | not as effective as compounds 1 and 2 | better PPARγ binding compounds | – | – | – |
| CCc1ccc(CCOc2ccc(CC3(C)SC(=O)NC3=O)cc2)nc1 (single isomer, unassigned) [Compound 7] | 248 | 237 | 210 | 144 | 105 | 249 | 246 | 631 ± 7 mg/dL | 16.3 ± 1.2 ng/mL | 374 ± 15 mg/dL | not as effective as compounds 1 and 2 | better PPARγ binding compounds | – | – | – |
| CCc1ccc([C@@H](O)COc2ccc(CC3SC(=O)NC3=O)cc2)nc1 (stereo partly drawn) [Compound 2] | 238 | 236 | 223 | 162 | 136 | 231 | 233 | – | – | – | equivalent antidiabetic activity | particularly poor binders | 428 +/− 17* mg/dl | 5.7 +/− 1.6* ng/ml | 187 +/− 29* mg/dl |
| CCc1ccc([C@H](O)COc2ccc(CC3SC(=O)NC3=O)cc2)nc1 (stereo partly drawn) [Compound 3] | 203 | 185 | 134 | 88 | 77 | 226 | 221 | – | – | – | equivalent antidiabetic activity | – | 388 +/− 38* mg/dl | 7.2 +/− 1.9* ng/ml | 148 +/− 23* mg/dl |
| CCc1ccc(C(O)COc2ccc(CC3(C)SC(=O)NC3=O)cc2)nc1 (stereo not drawn) [Compound 5] | 228 | 226 | 212 | 132 | 106 | 235 | 230 | – | – | – | – | – | – | – | – |
| CCc1ccc([C@@H](O)COc2ccc(CC3(C)SC(=O)NC3=O)cc2)nc1 (stereo partly drawn) [Compound 8] | 239 | 241 | 233 | 199 | 186 | 237 | 243 | – | – | – | – | – | 756 ± 31 mg/dL | 12.8 ± 2.6 ng/mL | 465 ± 64 mg/dL |
| CCc1ccc([C@H](O)COc2ccc(CC3(C)SC(=O)NC3=O)cc2)nc1 (stereo partly drawn) [Compound 9] | 239 | 233 | 234 | 189 | 164 | 237 | 237 | – | – | – | – | – | 740 ± 37 mg/dL | 14.8 ± 2.5 ng/mL | 354 ± 43 mg/dL |
| CCc1ccc(C(=O)COc2ccc(CC3(C)SC(=O)NC3=O)cc2)nc1 (stereo not drawn) [Compound 10] | 240 | 234 | 219 | 126 | 93 | 245 | 239 | – | – | – | – | – | – | – | – |
| CCc1ccc(C(COc2ccc(CC3SC(=O)NC3=O)cc2)CC(=O)OC)nc1 (stereo not drawn) [Compound 12] | 198 | 155 | 112 | 80 | 85 | 243 | 222 | – | – | – | – | – | – | – | – |
| CCc1ccc(C(=CCO)COc2ccc(CC3SC(=O)NC3=O)cc2)nc1 (stereo not drawn) [Compound 13] | 229 | 230 | 204 | 148 | 108 | 244 | 243 | – | – | – | – | – | – | – | – |
